Results published in BindingDB's records for doi:10.1016/j.bmcl.2003.09.094 (Cv Therapeutics, 2003).

These molecules were tested against Adenosine receptor A1 (hamster) (assay: Binding affinity for adenosine A1 receptor determined using hamster DDT1 cell membranes with [3H]CCPA as radioligand).

Row | Structure (SMILES) | Ki [nM]
1 | CCCCNC(=O)OC[C@H]1OC(n2cnc3c(NC4CCOC4)ncnc32)[C@H](O)[C@@H]1O (stereo partly drawn) [Butyl-carbamic acid (2R,3S,4R)-3,4-dihydroxy-5-{6-[(R)-(tetrahydro-furan-3-yl)amino]-purin-9-yl}-tetrahydro-furan-2-ylmethyl ester] | 1410
2 | O=C(NC1CCC1)OC[C@H]1OC(n2cnc3c(NC4CCOC4)ncnc32)[C@H](O)[C@@H]1O (stereo partly drawn) [Cyclobutyl-carbamic acid (2R,3S,4R)-3,4-dihydroxy-5-{6-[(R)-(tetrahydro-furan-3-yl)amino]-purin-9-yl}-tetrahydro-furan-2-ylmethyl ester] | 306
3 | O[C@@H]1[C@@H](COC(=S)NC2CCC2)OC(n2cnc3c(NC4CCOC4)ncnc32)[C@@H]1O (stereo partly drawn) [Cyclobutyl-thiocarbamic acid (2R,3S,4R)-3,4-dihydroxy-5-{6-[(R)-(tetrahydro-furan-3-yl)amino]-purin-9-yl}-tetrahydro-furan-2-ylmethyl ester] | 148
4 | O=C(NC1CCCCC1)OC[C@H]1OC(n2cnc3c(NC4CCOC4)ncnc32)[C@H](O)[C@@H]1O (stereo partly drawn) [Cyclohexyl-carbamic acid (2R,3S,4R)-3,4-dihydroxy-5-{6-[(R)-(tetrahydro-furan-3-yl)amino]-purin-9-yl}-tetrahydro-furan-2-ylmethyl ester] | 584
5 | O=C(NC1CCCC1)OC[C@H]1OC(n2cnc3c(NC4CCOC4)nc(Cl)nc32)[C@H](O)[C@@H]1O (stereo partly drawn) [Cyclopentyl-carbamic acid (2R,3S,4R)-5-{2-chloro-6-[(R)-(tetrahydro-furan-3-yl)amino]-purin-9-yl}-3,4-dihydroxy-tetrahydro-furan-2-ylmethyl ester] | 226
6 | O[C@@H]1[C@@H](COC(=S)NC2CCCC2)OC(n2cnc3c(NC4CCOC4)ncnc32)[C@@H]1O (stereo partly drawn) [Cyclopentyl-thiocarbamic acid (2R,3S,4R)-3,4-dihydroxy-5-{6-[(R)-(tetrahydro-furan-3-yl)amino]-purin-9-yl}-tetrahydro-furan-2-ylmethyl ester] | 72
7 | O=C(NC1CC1)OC[C@H]1OC(n2cnc3c(NC4CCOC4)ncnc32)[C@H](O)[C@@H]1O (stereo partly drawn) [Cyclopropyl-carbamic acid (2R,3S,4R)-3,4-dihydroxy-5-{6-[(R)-(tetrahydro-furan-3-yl)amino]-purin-9-yl}-tetrahydro-furan-2-ylmethyl ester] | 209
8 | O[C@@H]1[C@@H](COC(=S)NC2CC2)OC(n2cnc3c(NC4CCOC4)ncnc32)[C@@H]1O (stereo partly drawn) [Cyclopropyl-thiocarbamic acid (2R,3S,4R)-3,4-dihydroxy-5-{6-[(R)-(tetrahydro-furan-3-yl)amino]-purin-9-yl}-tetrahydro-furan-2-ylmethyl ester] | 157
9 | CN(C)C(=O)OC[C@H]1OC(n2cnc3c(NC4CCOC4)ncnc32)[C@H](O)[C@@H]1O (stereo partly drawn) [Dimethyl-carbamic acid (2R,3S,4R)-3,4-dihydroxy-5-{6-[(R)-(tetrahydro-furan-3-yl)amino]-purin-9-yl}-tetrahydro-furan-2-ylmethyl ester] | 238
10 | CN(C)C(=S)OC[C@H]1OC(n2cnc3c(NC4CCOC4)ncnc32)[C@H](O)[C@@H]1O (stereo partly drawn) [Dimethyl-thiocarbamic acid (2R,3S,4R)-3,4-dihydroxy-5-{6-[(R)-(tetrahydro-furan-3-yl)amino]-purin-9-yl}-tetrahydro-furan-2-ylmethyl ester] | 205
11 | CCNC(=O)OC[C@H]1OC(n2cnc3c(NC4CCOC4)ncnc32)[C@H](O)[C@@H]1O (stereo partly drawn) [Ethyl-carbamic acid (2R,3S,4R)-3,4-dihydroxy-5-{6-[(R)-(tetrahydro-furan-3-yl)amino]-purin-9-yl}-tetrahydro-furan-2-ylmethyl ester] | 167
12 | CCNC(=S)OC[C@H]1OC(n2cnc3c(NC4CCOC4)ncnc32)[C@H](O)[C@@H]1O (stereo partly drawn) [Ethyl-thiocarbamic acid (2R,3S,4R)-3,4-dihydroxy-5-{6-[(R)-(tetrahydro-furan-3-yl)amino]-purin-9-yl}-tetrahydro-furan-2-ylmethyl ester] | 33
13 | CCNC(=S)OC[C@H]1OC(n2cnc3c(NC4CCOC4)nc(Cl)nc32)[C@H](O)[C@@H]1O (stereo partly drawn) [Ethyl-thiocarbamic acid (2R,3S,4R)-5-{2-chloro-6-[(R)-(tetrahydro-furan-3-yl)amino]-purin-9-yl}-3,4-dihydroxy-tetrahydro-furan-2-ylmethyl ester] | 55
14 | CC(C)NC(=O)OC[C@H]1OC(n2cnc3c(NC4CCOC4)ncnc32)[C@H](O)[C@@H]1O (stereo partly drawn) [Isopropyl-carbamic acid (2R,3S,4R)-3,4-dihydroxy-5-{6-[(R)-(tetrahydro-furan-3-yl)amino]-purin-9-yl}-tetrahydro-furan-2-ylmethyl ester] | 78
15 | CNC(=O)OC[C@H]1OC(n2cnc3c(NC4CCOC4)nc(Cl)nc32)[C@H](O)[C@@H]1O (stereo partly drawn) [Methyl-carbamic acid (2R,3S,4R)-5-{2-chloro-6-[(R)-(tetrahydro-furan-3-yl)amino]-purin-9-yl}-3,4-dihydroxy-tetrahydro-furan-2-ylmethyl ester] | 96
16 | CNC(=S)OC[C@H]1OC(n2cnc3c(NC4CCOC4)nc(Cl)nc32)[C@H](O)[C@@H]1O (stereo partly drawn) [Methyl-thiocarbamic acid (2R,3S,4R)-5-{2-chloro-6-[(R)-(tetrahydro-furan-3-yl)amino]-purin-9-yl}-3,4-dihydroxy-tetrahydro-furan-2-ylmethyl ester] | 71
17 | CCCNC(=O)OC[C@H]1OC(n2cnc3c(NC4CCOC4)ncnc32)[C@H](O)[C@@H]1O (stereo partly drawn) [Propyl-carbamic acid (2R,3S,4R)-3,4-dihydroxy-5-{6-[(R)-(tetrahydro-furan-3-yl)amino]-purin-9-yl}-tetrahydro-furan-2-ylmethyl ester] | 235

Continued, values first:

Row | Ki [nM] | Structure (SMILES)
18 | 524 | C=CCNC(=O)OC[C@H]1OC(n2cnc3c(NC4CCOC4)ncnc32)[C@H](O)[C@@H]1O (stereo partly drawn) [Allyl-carbamic acid (2R,3S,4R)-3,4-dihydroxy-5-{6-[(R)-(tetrahydro-furan-3-yl)amino]-purin-9-yl}-tetrahydro-furan-2-ylmethyl ester]
19 | 35 | C=CCNC(=S)OC[C@H]1OC(n2cnc3c(NC4CCOC4)ncnc32)[C@H](O)[C@@H]1O (stereo partly drawn) [Allyl-thiocarbamic acid (2R,3S,4R)-3,4-dihydroxy-5-{6-[(R)-(tetrahydro-furan-3-yl)amino]-purin-9-yl}-tetrahydro-furan-2-ylmethyl ester]
20 | 1830 | O=C(NCc1ccccc1)OC[C@H]1OC(n2cnc3c(NC4CCOC4)ncnc32)[C@H](O)[C@@H]1O (stereo partly drawn) [Benzyl-carbamic acid (2R,3S,4R)-3,4-dihydroxy-5-{6-[(R)-(tetrahydro-furan-3-yl)amino]-purin-9-yl}-tetrahydro-furan-2-ylmethyl ester]
21 | 12 | O[C@@H]1[C@@H](COC(=S)NCc2ccccc2)OC(n2cnc3c(NC4CCOC4)ncnc32)[C@@H]1O (stereo partly drawn) [Benzyl-thiocarbamic acid (2R,3S,4R)-3,4-dihydroxy-5-{6-[(R)-(tetrahydro-furan-3-yl)amino]-purin-9-yl}-tetrahydro-furan-2-ylmethyl ester]
22 | 157 | CCCCNC(=S)OC[C@H]1OC(n2cnc3c(NC4CCOC4)ncnc32)[C@H](O)[C@@H]1O (stereo partly drawn) [Butyl-thiocarbamic acid (2R,3S,4R)-3,4-dihydroxy-5-{6-[(R)-(tetrahydro-furan-3-yl)amino]-purin-9-yl}-tetrahydro-furan-2-ylmethyl ester]
23 | 253 | O[C@@H]1[C@@H](COC(=S)NC2CCCCC2)OC(n2cnc3c(NC4CCOC4)ncnc32)[C@@H]1O (stereo partly drawn) [Cyclohexyl-thiocarbamic acid (2R,3S,4R)-3,4-dihydroxy-5-{6-[(R)-(tetrahydro-furan-3-yl)amino]-purin-9-yl}-tetrahydro-furan-2-ylmethyl ester]
24 | 36 | CC(C)NC(=S)OC[C@H]1OC(n2cnc3c(NC4CCOC4)ncnc32)[C@H](O)[C@@H]1O (stereo partly drawn) [Isopropyl-thiocarbamic acid (2R,3S,4R)-3,4-dihydroxy-5-{6-[(R)-(tetrahydro-furan-3-yl)amino]-purin-9-yl}-tetrahydro-furan-2-ylmethyl ester]
25 | 45 | CNC(=S)OC[C@H]1OC(n2cnc3c(NC4CCOC4)ncnc32)[C@H](O)[C@@H]1O (stereo partly drawn) [Methyl-thiocarbamic acid (2R,3S,4R)-3,4-dihydroxy-5-{6-[(R)-(tetrahydro-furan-3-yl)amino]-purin-9-yl}-tetrahydro-furan-2-ylmethyl ester]
26 | 50 | CCCNC(=S)OC[C@H]1OC(n2cnc3c(NC4CCOC4)ncnc32)[C@H](O)[C@@H]1O (stereo partly drawn) [Propyl-thiocarbamic acid (2R,3S,4R)-3,4-dihydroxy-5-{6-[(R)-(tetrahydro-furan-3-yl)amino]-purin-9-yl}-tetrahydro-furan-2-ylmethyl ester]
